Assays:
[1] = system: P. gingivalis ATCC 3277; test: MIC of a broadened organism spectrum: oral organisms; type: cell-based, Porphyromonas gingivalis; conditions: Porphyromonas gingivalis, ATCC3277, Columbia bouillon, 7-10 days at 37° C anaerobic, read-out: minimum inhibiting concentration MIC, oral organisms
Description: (§1) Determination of the Minimum Inhibiting Concentration MIC (ppm) of a Broadened Organism Spectrum: Oral Organisms
(§2) • Medium: thioglycolate bouillon with hemin and menadione Columbia bouillon with hemin and menadione for P. gingivalis and P. nigrescens • Dilution medium: the appropriate amount of the substances was pipetted directly into the medium. • Test organisms: Actinobacillus actinomycetemcomitans ATCC 43718 • Streptococcus gordonil ATCC 10558 • Streptococcus mutans ATCC 33402 • Actinomyces viscosus ATCC 43146 • Fusobacterium nucleatum subsp. polymorphum ATCC 10953 • Porphyromonas gingivalis ATCC 33277 • Prevotella nigrescens ATCC 33563 • Incubation: 7-10 days at 37° C anaerobic, or 24 hours aerobic with 10% CO2 for Streptococci and A. actinomycetemcomitans • Test solution: Stock solutions of all the test substances in ethanol at 1500 ppm (w/w) are used. Test Principle:
(§3) Bacteria are removed from blood agar plates using cotton wool buds and a suitable optical density (McFarland 0.5) is adjusted in an appropriate medium; that solution is used undiluted for F. nucleatum and P. nigrescens, and in a dilution of 1:20 for the other strains. 0.1 ml of bacterial culture is added per 2 ml of active ingredient solution and incubation is carried out as described above.

[2] = system: Escherichia coli NCTC 8196; test: MIC of a broadened organism spectrum (agar); type: cell-based; conditions: NCTC8196, 24 hours at 37° C., read-out: minimum inhibiting concentration MIC
Description: (§4) Determination of the Minimum Inhibiting Concentration MIC [ppm] of a Broadened Organism Spectrum
(§5) • Medium: Casein/soybean flour peptone agar (Merck) • *Sabouraud 4% glucose agar (Merck) • Dilution medium: sterile 0.85% NaCl solution • Test organisms: Staphylococcus aureus ATCC 6853 and 9144 • Staphylococcus epidermidis ATCC 12228 • C. xerosis ATCC 373 ** • C. minutissimum ATCC 23348 • Proplonibacterium acnes ATCC 6919 • Escherichia coli ATCC 10536 and NCTC 8196 • Proteus vulgaris ATCC 6896 • Klebsiella pneumoniae ATCC 4352 • Salmonella choleraesuis ATCC 9184 • Pseudomonas aeruginosa ATCC 15442 • *Candida albicans ATCC 10231 • *Aspergillus niger ATCC 6275 • Incubation: 24 hours at 37° C. • *3 days at 28° C. • Test solution: 1% stock solutions of all the test substances in a suitable solvent are prepared and diluted in serial dilutions (1:10, 1:100 and 1:1000 dilution), where possible diluted to such an extent that the end concentrations in agar are from 500 ppm to 10 ppm. Test principle:
(§6) 0.3 ml of the dilution stage in question is mixed with 15 ml of still-liquid nutrient medium.
(§7) When the nutrient substrate has solidified, 10 μl portions of a suitable organism dilution of the test strains in 0.85% NaCl solution are spotted onto the agar medium: […]

[3] = system: Propionibacterium acnes ATCC 6919; test: MIC of a broadened organism spectrum (agar); type: cell-based; conditions: Cutibacterium acnes, ATCC6919, 72 h, 3 days incubation under anaerobic conditions, read-out: minimum inhibiting concentration MIC
Description: as §4, §5, §6, §7

[4] = system: Aspergillus niger ATCC 6275; test: MIC of a broadened organism spectrum (agar); type: cell-based; conditions: ATCC6275, 72 h, Sabouraud 4% glucose agar, 3 days at 28° C., read-out: minimum inhibiting concentration MIC
Description: as §4, §5, §6, §7

[5] = system: Pseudomonas aeruginosa ATCC 15442; test: MIC of a broadened organism spectrum (agar); type: cell-based; conditions: ATCC15442, 24 hours at 37° C., read-out: minimum inhibiting concentration MIC
Description: as §4, §5, §6, §7

[6] = system: Klebsiella pneumoniae ATCC 4352; test: MIC of a broadened organism spectrum (agar); type: cell-based; conditions: ATCC4352, 24 hours at 37° C., read-out: minimum inhibiting concentration MIC
Description: as §4, §5, §6, §7

[7] = system: Staphylococcus aureus ATCC 6538; test: MIC of a broadened organism spectrum (agar); type: cell-based; conditions: ATCC6538, 24 hours at 37° C., read-out: minimum inhibiting concentration MIC
Description: as §4, §5, §6, §7

[8] = system: Staphylococcus epidermidis ATCC 12228; test: MIC of a broadened organism spectrum (agar); type: cell-based; conditions: ATCC12228, 24 hours at 37° C., read-out: minimum inhibiting concentration MIC
Description: as §4, §5, §6, §7

[9] = system: Staphylococcus aureus ATCC 9144; test: MIC of a broadened organism spectrum (agar); type: cell-based; conditions: ATCC9144, 24 hours at 37° C., read-out: minimum inhibiting concentration MIC
Description: as §4, §5, §6, §7

[10] = system: C. xerosis ATCC 373; test: MIC of a broadened organism spectrum (agar); type: cell-based; conditions: Corynebacterium xerosis, ATCC373, 72 h, 3 days incubation, read-out: minimum inhibiting concentration MIC
Description: as §4, §5, §6, §7

[11] = system: Salmonella choleraesuis ATCC 9184; test: MIC of a broadened organism spectrum (agar); type: cell-based; conditions: Salmonella enterica, 24 hours at 37° C., read-out: minimum inhibiting concentration MIC
Description: as §4, §5, §6, §7

[12] = system: Escherichia coli ATCC 10536; test: MIC of a broadened organism spectrum (agar); type: cell-based; conditions: ATCC10536, 24 hours at 37° C., read-out: minimum inhibiting concentration MIC
Description: as §4, §5, §6, §7

[13] = system: C. minutissimum ATCC 23348; test: MIC of a broadened organism spectrum (agar); type: cell-based; conditions: Corynebacterium minutissimum, ATCC23348, 72 h, 3 days incubation (Table 3a), read-out: minimum inhibiting concentration MIC
Description: as §4, §5, §6, §7

[14] = system: Proteus vulgaris ATCC 6896; test: MIC of a broadened organism spectrum (agar); type: cell-based; conditions: ATCC6896, 24 hours at 37° C., read-out: minimum inhibiting concentration MIC
Description: as §4, §5, §6, §7

[15] = system: Candida albicans ATCC 10231; test: MIC of a broadened organism spectrum (agar); type: cell-based; conditions: ATCC10231, 72 h, Sabouraud 4% glucose agar, 3 days at 28° C., read-out: minimum inhibiting concentration MIC
Description: as §4, §5, §6, §7

[16] = system: S. gordonii ATCC 10558; test: MIC of a broadened organism spectrum: oral organisms; type: cell-based, Streptococcus gordonil; conditions: Streptococcus gordonii, ATCC10558, 24 hours aerobic with 10% CO2, read-out: minimum inhibiting concentration MIC, oral organisms
Description: as §1, §2, §3

[17] = system: Actinobacillus actinomycetemcomitans ATCC 43718; test: as above; type: cell-based; conditions: Aggregatibacter actinomycetemcomitans, ATCC43718; A. actinomycetemcomitans ATCC 43718; 24 hours aerobic with 10% CO2; read-out: minimum inhibiting concentration MIC, oral organisms
Description: as §1, §2, §3

[18] = system: Actinomyces viscosus ATCC 43146; test: as above; type: cell-based; conditions: Actinomyces viscosus, ATCC43146; A. viscosus ATCC 43146; 7-10 days at 37° C anaerobic; read-out: minimum inhibiting concentration MIC, oral organisms
Description: as §1, §2, §3

[19] = system: Prevotella nigrescens ATCC 33563; test: as above; type: cell-based; conditions: Prevotella nigrescens, ATCC33563; P. nigrescens ATCC 33563; Columbia bouillon, 7-10 days at 37° C anaerobic; read-out: minimum inhibiting concentration MIC, oral organisms
Description: as §1, §2, §3

[20] = system: Fusobacterium nucleatum subsp. polymorphum ATCC 10953; test: as above; type: cell-based; conditions: Fusobacterium nucleatum, ATCC10953; F. nucleatum subsp. polymorphum ATCC 10953; 7-10 days at 37° C anaerobic; read-out: minimum inhibiting concentration MIC, oral organisms
Description: as §1, §2, §3

[21] = system: Streptococcus mutans ATCC 33402; test: as above; type: cell-based; conditions: Streptococcus mutans, ATCC33402; S. mutans ATCC 33402; 24 hours aerobic with 10% CO2; read-out: minimum inhibiting concentration MIC, oral organisms
Description: as §1, §2, §3

| MIC [1] | MIC [2] | MIC [3] | MIC [4] | MIC [5] | MIC [6] | MIC [7] | MIC [8] | MIC [9] | MIC [10] | MIC [12] | MIC [13] | MIC [14] | MIC [15] | MIC [16] | MIC [17] | MIC [18] | MIC [19] | MIC [20] | Compound | MIC [11] | other results |
| --- | --- | --- | --- | --- | --- | --- | --- | --- | --- | --- | --- | --- | --- | --- | --- | --- | --- | --- | --- | --- | --- |
| 7.5 µg/mL | 15.6 µg/mL | 7.8 µg/mL | 250 µg/mL | > 500 µg/mL | 7.8 µg/mL | 7.8 µg/mL | 7.8 µg/mL | 7.8 µg/mL | 1.95 µg/mL | 250 µg/mL | 3.9 µg/mL | > 500 µg/mL | 62.5 µg/mL | 15 µg/mL | > 15 µg/mL | 3.75 µg/mL | 7.5 µg/mL | 15 µg/mL | Cc1cc(NCCc2ccccc2)nc(NCCc2ccccc2)n1 [PY9, N,N′-Bis(2,4-diphenylethylamino)-6-methylpyrimidine] | 250 µg/mL | MIC [21]: 15 µg/mL |
| 3.8 µg/mL | 15.6 µg/mL | 3.9 µg/mL | 500 µg/mL | > 500 µg/mL | 7.8 µg/mL | 7.8 µg/mL | 3.9 µg/mL | 7.8 µg/mL | 3.9 µg/mL | 62.5 µg/mL | 3.9 µg/mL | > 500 µg/mL | 250 µg/mL | 7.5 µg/mL | > 15 µg/mL | 3.8 µg/mL | 3.8 µg/mL | 3.8 µg/mL | CCCCCCCCNc1nc(C)cc(N2CCCC2)n1 [PY44] | 62.5 µg/mL | MIC [21]: 7.5 µg/mL |
| 3.8 µg/mL | 7.8 µg/mL | 3.9 µg/mL | 500 µg/mL | > 500 µg/mL | 15.6 µg/mL | 7.8 µg/mL | 7.8 µg/mL | 3.9 µg/mL | 3.9 µg/mL | 7.8 µg/mL | 3.9 µg/mL | > 500 µg/mL | 125 µg/mL | 3.8 µg/mL | 15 µg/mL | 3.8 µg/mL | 3.8 µg/mL | 7.5 µg/mL | CCCCCCCCNc1nc(C)c(CCCCCC)c(NCCOCCOCCN)n1 [PY55] | 7.8 µg/mL | MIC [21]: 7.5 µg/mL |

From patent publication US7722893B2, “Use of substitute 2,4-bis (alkylamino) pyrimidines or quinzolines as antimicrobials” (Ciba Specialty Chemicals Corporation, priority 2003, dated 2010)
